# Test results as given in patent publication US20230322822A1, “ARYL PHOSPHOROUS OXIDE COMPOUNDS AND USE THEREOF” (Chengdu Di'ao Jiuhong Pharmaceutical Factory, priority 2020, published 2023).
# Read-outs that look alike come from different tables or passages of the source.
# Key:
# NCI-H3122 cells = experiment: In vivo pharmacodynamic study, subcutaneously implanted tumor NCI-H3122 (two-sided model); parameters: species or system BALB/c nude mouse
# Procedure: Passages were treated twice a week. When the cell number reached requirement, the cells were collected, counted and inoculated.
# Administration mode and frequency: oral gavage was carried out with an administration volume of 10 mL/kg, and the model group was administered with the same volume of solvent. The administration was once per day and continuously carried out for 16 days.
# General conditions such as spirit, activity, food intake and the like of the mice were observed every day, and the weight was measured thrice every week; the short diameter (a) and the long diameter (b) of each mouse tumor were measured thrice a week with a vernier caliper, and the tumor volume was calculated according to the formula (a^2×b)/2. The Relative Tumor Volume (RTV) was calculated from the measured tumor volume, wherein RTV=Vt/V0, wherein V0 was the tumor volume at random grouping (i.e., d0) and Vt was the tumor volume at each measurement (i.e., dn). The relative tumor proliferation rate of the evaluation index of the anti-tumor activity was calculated according to the following formula: relative tumor proliferation rate T/C (%): […]
# Note: TRTV: treatment group RTV; CRTV model control group RTV.
# [1] = tested on: BaF3 EML-4-ALK-L1196M cell line; experiment: Cell anti-proliferation test 4 (CCK-8), BaF3 EML-4-ALK-L1196M; type: cell-based; settings: Ba/F3 EML4-ALK-L1196M, BaF3 EML-4-ALK-L1196M cells, CCK-8, 72 hours
# Procedure: BaF3 EML-4-ALK-L1196M cell line, brand: KYinno, article number: KC-0102
# Cell Counting Kit-8 (CCK-8), brand: Targetmol, article number: C0005
# 10 μL of the compound diluted in gradient was added to the cell plate to give final concentrations of the compounds as 500, 166.67, 55.56, 18.52, 6.17, 2.06, 0.69, 0.23 and 0.08 nM. • d.
# [2] = 20 mg/kg oral gavage once per day
# [3] = 40 mg/kg oral gavage once per day
smiles,measurement,setting,value
COc1cc(N2CCC(N3CCN(C)CC3)CC2)c(C)cc1Nc1ncc(Br)c(Nc2ccc(C)cc2P(C)(C)=O)n1 [Compound 2],NCI-H3122 Tumor volume Day 0,NCI-H3122 cells; [2],116 mm^3
same,NCI-H3122 T/C Day 2,NCI-H3122 cells; [2],81.79%
same,NCI-H3122 Tumor volume Day 2,NCI-H3122 cells; [2],115 mm^3
same,NCI-H3122 T/C Day 4,NCI-H3122 cells; [2],49.46%
same,NCI-H3122 Tumor volume Day 4,NCI-H3122 cells; [2],92 mm^3
same,NCI-H3122 T/C Day 6,NCI-H3122 cells; [2],34.18%
same,NCI-H3122 Tumor volume Day 6,NCI-H3122 cells; [2],84 mm^3
same,NCI-H3122 T/C Day 9,NCI-H3122 cells; [2],19.71%
same,NCI-H3122 Tumor volume Day 9,NCI-H3122 cells; [2],74 mm^3
same,NCI-H3122 T/C Day 11,NCI-H3122 cells; [2],13.58%
same,NCI-H3122 Tumor volume Day 11,NCI-H3122 cells; [2],63 mm^3
same,NCI-H3122 T/C Day 13,NCI-H3122 cells; [2],10.25%
same,NCI-H3122 Tumor volume Day 13,NCI-H3122 cells; [2],58 mm^3
same,NCI-H3122 T/C Day 16,NCI-H3122 cells; [2],8.16%
same,NCI-H3122 Tumor volume Day 16,NCI-H3122 cells; [2],61 mm^3
same,NCI-H3122 Tumor volume Day 0,NCI-H3122 cells; [3],116 mm^3
same,NCI-H3122 T/C Day 2,NCI-H3122 cells; [3],72.16%
same,NCI-H3122 Tumor volume Day 2,NCI-H3122 cells; [3],101 mm^3
same,NCI-H3122 T/C Day 4,NCI-H3122 cells; [3],29.76%
same,NCI-H3122 Tumor volume Day 4,NCI-H3122 cells; [3],54 mm^3
same,NCI-H3122 T/C Day 6,NCI-H3122 cells; [3],19.38%
same,NCI-H3122 Tumor volume Day 6,NCI-H3122 cells; [3],47 mm^3
same,NCI-H3122 T/C Day 9,NCI-H3122 cells; [3],8.54%
same,NCI-H3122 Tumor volume Day 9,NCI-H3122 cells; [3],33 mm^3
same,NCI-H3122 T/C Day 11,NCI-H3122 cells; [3],7.2%
same,NCI-H3122 Tumor volume Day 11,NCI-H3122 cells; [3],34 mm^3
same,NCI-H3122 T/C Day 13,NCI-H3122 cells; [3],5.28%
same,NCI-H3122 Tumor volume Day 13,NCI-H3122 cells; [3],32 mm^3
same,NCI-H3122 T/C Day 16,NCI-H3122 cells; [3],3.6%
same,NCI-H3122 Tumor volume Day 16,NCI-H3122 cells; [3],28 mm^3
same,IC50,"[1]; first test, read-out: First test IC50",15.1 nM
same,IC50,"[1]; second test, read-out: Second test IC50",10.4 nM
